molecular target: T1, Microsomal triglyceride transfer protein (MTP) from bovine liver (Bos taurus, UniProt P55156); test: Inhibition of interliposomal triglyceride (TG) transfer activity by MTP; assay type: biochemical; conditions: MTP-mediated TG transfer between donor and acceptor liposomes, 37° C., one hour
T1 construct: the purified MTP was used for the test; from tissue; host or cells: bovine liver
T1 sequence (P55156 12-887): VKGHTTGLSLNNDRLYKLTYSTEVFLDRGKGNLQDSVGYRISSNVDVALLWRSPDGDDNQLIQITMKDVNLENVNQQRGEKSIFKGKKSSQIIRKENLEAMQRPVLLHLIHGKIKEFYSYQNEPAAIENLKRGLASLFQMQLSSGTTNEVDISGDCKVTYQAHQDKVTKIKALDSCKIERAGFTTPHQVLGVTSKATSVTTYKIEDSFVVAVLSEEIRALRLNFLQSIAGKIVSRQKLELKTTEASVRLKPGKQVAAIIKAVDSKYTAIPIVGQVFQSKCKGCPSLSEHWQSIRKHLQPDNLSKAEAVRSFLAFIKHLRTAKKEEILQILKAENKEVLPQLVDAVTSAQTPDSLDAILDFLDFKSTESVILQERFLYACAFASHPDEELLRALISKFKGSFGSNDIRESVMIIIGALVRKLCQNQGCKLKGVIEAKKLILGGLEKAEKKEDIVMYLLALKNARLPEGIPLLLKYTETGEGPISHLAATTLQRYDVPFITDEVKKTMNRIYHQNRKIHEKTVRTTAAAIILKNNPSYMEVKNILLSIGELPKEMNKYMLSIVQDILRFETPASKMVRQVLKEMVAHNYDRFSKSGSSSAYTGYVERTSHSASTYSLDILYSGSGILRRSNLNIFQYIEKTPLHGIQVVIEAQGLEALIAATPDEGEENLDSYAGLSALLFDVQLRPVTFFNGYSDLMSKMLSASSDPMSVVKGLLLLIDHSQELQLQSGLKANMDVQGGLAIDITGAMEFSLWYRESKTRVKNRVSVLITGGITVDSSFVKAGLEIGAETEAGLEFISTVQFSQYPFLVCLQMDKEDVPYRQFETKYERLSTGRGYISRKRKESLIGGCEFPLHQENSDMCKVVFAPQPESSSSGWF
T1 sequence (P05307 21-510 partner): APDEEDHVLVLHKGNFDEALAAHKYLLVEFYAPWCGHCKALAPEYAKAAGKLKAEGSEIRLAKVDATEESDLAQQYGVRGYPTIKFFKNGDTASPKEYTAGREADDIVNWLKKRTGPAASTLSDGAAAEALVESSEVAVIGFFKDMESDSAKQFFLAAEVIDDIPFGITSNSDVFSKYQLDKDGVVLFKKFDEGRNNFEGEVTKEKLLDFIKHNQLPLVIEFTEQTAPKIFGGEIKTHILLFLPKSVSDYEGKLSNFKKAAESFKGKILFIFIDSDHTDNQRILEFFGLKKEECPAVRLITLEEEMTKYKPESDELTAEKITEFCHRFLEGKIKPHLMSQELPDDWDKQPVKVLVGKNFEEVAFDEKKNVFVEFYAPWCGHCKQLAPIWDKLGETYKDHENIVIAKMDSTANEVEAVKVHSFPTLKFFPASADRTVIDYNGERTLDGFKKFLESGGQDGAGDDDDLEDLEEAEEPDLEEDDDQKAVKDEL
Procedure: Microsomal triglyceride transfer protein (MTP) from bovine liver was partially purified in such a way described below. A buffer (50 mM Tris, 250 mM sucrose, 1 mM EDTA, 0.02% NaN3 (pH 7.4)) for making a homogenate preparation was added to bovine liver, and the mixture was homogenated under ice-cooling, then centrifuged at 10,000×g (4° C., 30 minutes) The supernatant was adjusted to pH 5.1 with hydrochloric acid, and stirred for 30 minutes. The solution was further centrifuged at 10,000×g (4° C., 30 minutes), and 1 mM Tris buffer was added to the precipitated residue, and the mixture was adjusted to pH 8.6 with sodium hydroxide. After addition of 2.7 M ammonium sulfate solution, the mixture was stirred for 30 minutes, then centrifuged at 10,000×g (4° C., 40 minutes). The resulting supernatant was served as a crude extraction fraction of MTP and stored at −80° C. under freezing. In its practical use, the crude extraction fraction of MTP was purified by column chromatography on diethylaminoethyl (DEAE) Sepharose using FPLC (Fast Performance Liquid Chromatography) system, and the purified MTP was used for the test.
Small unilamellar-vesicle (SUV) liposome (donor, 0.25 mol % triolein, 5 mol % cardiolipin) labeled with ^14C-triolein and non-labeled SUV liposome (acceptor, 0.25 mol % triolein) were prepared. A fixed amount of donor and acceptor, and MTP were mixed with a sample dissolved in DMSO or with DMSO. The mixture was incubated in a 15 mM Tris hydrochloride buffer (pH 7.4) containing 40 mM sodium chloride, 1 mM EDTA (ethylenediaminetetraacetic acid), 0.02% NaN3 and 0.5% bovine serum albumin at 37° C. for one hour. After completion of the incubation, a suspension of DEAE cellulose (50% v/v) in 15 mM Tris hydrochloride buffer (pH 7.4) was added to the above solution, and the mixture was centrifuged to separate the donor and the acceptor. The radioactivity in the acceptor was measured by liquid scintillation counter. The value obtained by subtracting the radioactivity in the blank from the amount of radioactivity in the acceptor of a DMSO group was determined as MTP-mediated TG transfer activity, and it was compared with the value obtained by subtracting the radioactivity in the blank from the radioactivity in a sample group. The blank was prepared by adding 15 mM Tris-HCl buffer (pH 7.4) in place of MTP. Inhibition rate (%) was calculated from the values obtained according to the following equation.
Inhibition rate (%)=100×(1 minus ((radioactivity of sample group minus radioactivity of blank group)/(radioactivity of DMSO group minus radioactivity of blank group))). 50% Inhibition rate (IC50) was determined on the basis of the above equation.

IC50 [nM]	Structure (SMILES)
< 10	CCOC(=O)C(COC(=O)Oc1c(F)cc(NC(=O)c2ccc(C)nc2-c2ccc(C(F)(F)F)cc2)c(C(=O)N(C)C)c1F)(C(=O)OCC)c1cccs1 [Example 2-30]
10 to 100	CCN(C)C(=O)C(COC(=O)Oc1c(F)cc(NC(=O)c2ccccc2-c2ccc(C(F)(F)F)cc2)c(C(=O)N(C)C)c1F)(C(=O)N(C)CC)c1ccccc1 [Example 2-31]
< 10	CCOC(=O)C(COC(=O)Oc1c(F)cc(NC(=O)c2ccc(C(F)(F)F)cc2-c2ccc(C(F)(F)F)cc2)c(C(=O)N(C)C)c1F)(C(=O)OCC)c1cccs1 [Example 2-32]
< 10	CCOC(=O)C(COC(=O)Oc1c(F)cc(NC(=O)c2cccc(F)c2-c2ccc(C(F)(F)F)cc2)c(C(=O)N(C)C)c1F)(C(=O)OCC)c1cccs1 [Example 2-33]
< 10	CCOC(=O)C(COC(=O)Oc1c(F)cc(NC(=O)c2cccc(C)c2-c2ccc(C(F)(F)F)cc2)c(C(=O)N(C)C)c1F)(C(=O)OCC)c1cccs1 [Example 2-34]
10 to 100	CCOC(=O)C(COC(=O)Oc1c(F)cc(NC(=O)c2cc(C)ccc2-c2ccc(C(F)(F)F)cc2)c(C(=O)N(C)C)c1F)(C(=O)OCC)c1cccs1 [Example 2-35]
< 10	CCOC(=O)C(COC(=O)Oc1c(F)cc(NC(=O)c2cccc(OC)c2-c2ccc(C(F)(F)F)cc2)c(C(=O)N(C)C)c1F)(C(=O)OCC)c1cccs1 [Example 2-36]
10 to 100	CCOC(=O)C(COC(=O)Oc1c(F)cc(NC(=O)c2ccc(OC)cc2-c2ccc(C(F)(F)F)cc2)c(C(=O)N(C)C)c1F)(C(=O)OCC)c1cccs1 [Example 2-37]
10 to 100	CCOC(=O)C(COC(=O)Oc1c(F)cc(NC(=O)c2ccccc2-c2ccc(C(F)(F)F)cc2)c(C(=O)N2CCOCC2)c1F)(C(=O)OCC)c1cccs1 [Example 2-38]
< 10	CCOC(=O)C(COC(=O)Oc1c(F)cc(NC(=O)c2c(C)cccc2-c2ccc(C(F)(F)F)cc2)c(C(=O)N(C)C)c1F)(C(=O)OCC)c1cccs1 [Example 2-39]
< 10	CCOC(=O)C(COC(=O)Oc1c(F)cc(NC(=O)c2ccccc2-c2ccc(C(F)(F)F)c(F)c2)c(C(=O)N(C)C)c1F)(C(=O)OCC)c1cccs1 [Example 2-40]
< 10	CCOC(=O)C(COC(=O)Oc1c(F)cc(NC(=O)c2ccccc2-c2ccc(C(F)(F)F)cc2)c(C(=O)N(C)CCOC)c1F)(C(=O)OCC)c1cccs1 [Example 2-41]
10 to 100	CCOC(=O)C(COC(=O)Oc1c(F)cc(NC(=O)c2ccccc2-c2ccc(C(F)(F)F)cc2)c(C(=O)N(C)CC(=O)OC)c1F)(C(=O)OCC)c1cccs1 [Example 2-42]
10 to 100	CCOC(=O)C(COC(=O)Oc1c(F)cc(NC(=O)c2ccc(C)cc2-c2ccc(C(F)(F)F)cc2)c(C(=O)N2CCOCC2)c1F)(C(=O)OCC)c1cccs1 [Example 2-43]
10 to 100	CCOC(=O)C(COC(=O)Oc1c(F)cc(NC(=O)c2ccccc2-c2ccc(C(F)(F)F)cc2)c(C(=O)N(C)C)c1F)(C(=O)OCC)c1nccs1 [Example 2-44]
100 to 1000	CCOC(=O)C(COC(=O)Oc1c(F)cc(NC(=O)c2ccccc2-c2ccc(C(F)(F)F)cc2)c(C(=O)N(C)CCO)c1F)(C(=O)OCC)c1cccs1 [Example 2-45]
100 to 1000	CCOC(=O)C(COC(=O)Oc1c(F)cc(NC(=O)c2ccccc2-c2ccc(C(F)(F)F)cc2)c(C(=O)N2CCN(C(C)=O)CC2)c1F)(C(=O)OCC)c1cccs1 [Example 2-46]
100 to 1000	CCOC(=O)C(COC(=O)Oc1c(F)cc(NC(=O)c2ccccc2-c2ccc(C(F)(F)F)cc2)c(C(=O)N2CCC(O)CC2)c1F)(C(=O)OCC)c1cccs1 [Example 2-47]
< 10	CCOC(=O)C(COC(=O)Oc1c(F)cc(NC(=O)c2ccccc2-c2ccc(C(F)(F)F)cc2)c(OC)c1F)(C(=O)OCC)c1cccs1 [Example 2-48]
< 10	CCOC(=O)C(COC(=O)Oc1c(F)cc(NC(=O)c2ccccc2-c2ccc(C(F)(F)F)cc2)cc1F)(C(=O)OCC)c1cccs1 [Example 2-49]
< 10	CCOC(=O)C(COC(=O)Oc1c(F)cc(NC(=O)c2ccccc2-c2ccc(C(F)(F)F)cc2)c(OCC)c1F)(C(=O)OCC)c1cccs1 [Example 2-51]
< 10	CCOC(=O)C(COC(=O)Oc1c(F)cc(NC(=O)c2ccccc2-c2ccc(C(F)(F)F)cc2)c(OC(C)C)c1F)(C(=O)OCC)c1cccs1 [Example 2-52]
< 10	CCOC(=O)C(CCC(=O)Oc1ccc(NC(=O)c2ccccc2-c2ccc(C(F)(F)F)cc2)c(C(=O)N(C)C)c1)(C(=O)OCC)c1ccccc1 [Example 3, 2-Ethoxycarbonyl-2-phenylpentanedioic acid 5-{3-dimethylcarbamoyl-4-[(4′-trifluoromethylbiphenyl-2-carbonyl)amino]phenyl}ester 1-ethyl ester]
< 10	CCNC(=O)C(COCCC(=O)Oc1ccc(NC(=O)c2ccccc2-c2ccc(C(F)(F)F)cc2)c(C(=O)N(C)C)c1)(C(=O)NCC)c1ccccc1 [Example 3-3, 3-(2,2′-Bisethylcarbamoyl-2-phenylethoxy)propionic acid 3-dimethylcarbamoyl-4-[(4′-trifluoromethylbiphenyl-2-carbonyl)amino]phenyl ester]
< 10	CCOC(=O)C(CC(=O)Oc1ccc(NC(=O)c2ccccc2-c2ccc(C(F)(F)F)cc2)c(C(=O)N(C)C)c1)(C(=O)OCC)c1ccccc1 [Example 3-4]
< 10	CCOC(=O)C(CC(=O)OCc1ccc(NC(=O)c2ccccc2-c2ccc(C(F)(F)F)cc2)c(C(=O)N(C)C)c1)(C(=O)OCC)c1ccccc1 [Example 3-5]
< 10	CCOC(=O)C(CCC(=O)Oc1cc(C(=O)N(C)C)c(NC(=O)c2ccccc2-c2ccc(C(F)(F)F)cc2)cc1F)(C(=O)OCC)c1ccccc1 [Example 3-6]
< 10	CCOC(=O)C(CCC(=O)OCc1ccc(NC(=O)c2ccccc2-c2ccc(C(F)(F)F)cc2)c(C(=O)N(C)C)c1)(C(=O)OCC)c1ccccc1 [Example 3-7]
< 10	CCOC(=O)C(CCC(=O)Oc1ccc(N(C)C(=O)c2ccccc2-c2ccc(C(F)(F)F)cc2)c(C(=O)N(C)C)c1)(C(=O)OCC)c1ccccc1 [Example 3-8]
< 10	CCOC(=O)C(CCC(=O)Oc1c(F)cc(NC(=O)c2ccccc2-c2ccc(C(F)(F)F)cc2)c(C(=O)N(C)C)c1F)(C(=O)OCC)c1ccccc1 [Example 3-9]

Structure (SMILES)	IC50 [nM]
CCOC(=O)C(COC(=O)Oc1c(F)cc(NC(=O)c2ccccc2-c2ccc(C(F)(F)F)cc2)c(OC(=O)N(C)C)c1F)(C(=O)OCC)c1cccs1 [Example 2-50]	10 to 100

Source: patent publication US7432392B2, “Ester derivatives and medical use thereof” (Japan Tobacco Inc., priority 2003, dated 2008)
